Columns and labels:
[1] = target: T1, HDAC8 (Homo sapiens, UniProt Q9BY41); assay: HDAC-Glo assay; type: biochemical; set-up: purchased BPS Bioscience 50008; conditions: read-out: log EC50 from dose-dependent HDAC inhibition curves (converted)
T1 sequence (Q9BY41 1-377): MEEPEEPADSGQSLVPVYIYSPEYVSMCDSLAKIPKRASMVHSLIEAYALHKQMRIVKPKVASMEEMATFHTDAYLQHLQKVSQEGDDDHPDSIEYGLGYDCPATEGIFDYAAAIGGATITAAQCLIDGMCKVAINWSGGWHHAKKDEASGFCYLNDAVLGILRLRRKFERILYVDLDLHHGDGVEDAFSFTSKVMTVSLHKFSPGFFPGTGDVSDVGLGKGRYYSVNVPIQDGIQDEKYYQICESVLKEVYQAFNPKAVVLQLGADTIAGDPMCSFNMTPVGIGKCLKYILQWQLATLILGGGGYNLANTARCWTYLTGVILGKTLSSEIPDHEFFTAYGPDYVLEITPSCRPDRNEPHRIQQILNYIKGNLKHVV
Experimental: To validate the inhibition of HDACs by LA and LM and elaborate on the structure-activity relationship (SAR) of enantiomers as well as oxidized versus reduced forms of the molecules, we performed enzyme activity assays for recombinant HDAC1,2,3,6,8 as well as FRET-based binding assay for recombinant HDAC10.
The experiments were performed according to ref. [48]. […] Drug dosing was performed with a D300e Digital Dispenser (Tecan). HDACs (7 ng/mL for HDAC1, 25 ng/mL for HDAC2, 200 ng/mL for HDAC3/Ncor2 complex, 100 ng/mL for HDAC6, 200 ng/mL for HDAC8) and inhibitors were incubated together at room temperature (RT) for 30 min. After the addition of the HDAC-Glo™ I/II reagent, plates were shaken (800 rpm orbital shaker, 30 s), centrifuged (300 g, 1 min), and incubated at RT for 30 min. Luminescence was detected with a CLARIOstar (BMG Labtech) plate reader.

[2] = test system: DDX3X AcK118; assay: DDX3X acetylation detection by western blot, CBP-HA transfected HEK293T; type: cell-based
Experimental: 0.2 × 10^6 HEK293T (ATCC: CRL-3216) cells were transfected with pcDNA 3.1-HA CBP plasmids (1 μg/well for the 6-well plate) by FuGENE. After 2 days, cells were treated with ACY-738, lipoic acid, and lipoamide for 7 h, then were washed by ice-cold PBS and lysed in Triton lysis buffer (50 mM Tris, pH 8.0, 150 mM NaCl, 1 mM EDTA, 0.1% TritonX-100 and complete EDTA-free protease inhibitors (Roche)) for analysis. To detect protein acetylation, 0.2 μM Trichostatin A and 5 mM nicotinamide were added to PBS for washing, and 10 μM trichostatin A, 10 mM nicotinamide, and 50 mM sodium butyrate were added to Triton lysis buffer.

## O=C(O)CCCCC1CCSS1 (racemic) [(R/S)-LA, (R/S)-lipoic acid]
[1]
  EC50: 22.3 µM
[2]; 1 mM
  DDX3X AcK118 acetylation level relative to control: 2.4 fold
[2]; .5 (mM)
  DDX3X AcK118 acetylation level relative to control: 1.8 fold

## NC(=O)CCCCC1CCSS1 (racemic) [(R/S)-LM, (R/S)-lipoamide]
[1]
  EC50: 7.73 µM
[2]; 1 mM
  DDX3X AcK118 acetylation level relative to control: 2.4 fold
[2]; .5 (mM)
  DDX3X AcK118 acetylation level relative to control: 2.1 fold
